Experimental data from US20240399001A1, “RA[…] TH[…] TO FIBROBLAST ACTIVATION PROTEIN (FAP)” (BLUE EARTH D[…], priority 2021, published 2024).

Tests used:
FAP = target: T1, FAP (Homo sapiens, UniProt Q12884); assay: In vitro FAP binding affinity, Grating-Coupled Interferometry (GCI), waveRAPID kinetics assay; settings: immobilized biotinylated FAP; 1×PBS pH 7.4, 1 mM DTT, 0.005% Tween, 2% DMSO; non-radiolabelled compounds
T1 construct: biotin (biotinylated)
T1 sequence (Q12884 1-760): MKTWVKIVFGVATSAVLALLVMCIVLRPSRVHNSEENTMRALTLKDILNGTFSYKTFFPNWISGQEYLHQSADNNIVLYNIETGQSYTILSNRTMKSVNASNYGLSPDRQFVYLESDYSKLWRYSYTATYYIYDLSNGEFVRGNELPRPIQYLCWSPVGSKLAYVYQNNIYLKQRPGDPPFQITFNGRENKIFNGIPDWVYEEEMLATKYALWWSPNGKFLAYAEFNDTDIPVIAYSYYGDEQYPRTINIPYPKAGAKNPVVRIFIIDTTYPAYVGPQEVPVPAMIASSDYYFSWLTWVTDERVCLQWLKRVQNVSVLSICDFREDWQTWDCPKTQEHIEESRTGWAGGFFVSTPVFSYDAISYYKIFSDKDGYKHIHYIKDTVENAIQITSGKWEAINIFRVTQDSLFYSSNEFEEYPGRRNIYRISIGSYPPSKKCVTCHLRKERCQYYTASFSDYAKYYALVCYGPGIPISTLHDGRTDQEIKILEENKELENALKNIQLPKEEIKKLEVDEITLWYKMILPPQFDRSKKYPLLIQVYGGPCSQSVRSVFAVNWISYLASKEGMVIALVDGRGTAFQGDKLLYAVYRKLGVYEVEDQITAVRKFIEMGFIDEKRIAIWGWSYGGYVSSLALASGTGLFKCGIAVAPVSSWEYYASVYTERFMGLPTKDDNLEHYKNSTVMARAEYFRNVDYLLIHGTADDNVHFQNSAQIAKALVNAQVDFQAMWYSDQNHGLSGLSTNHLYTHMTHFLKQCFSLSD
Method: The binding affinity of non-radiolabelled compounds Example 2 (Ga—(S,R,R)—SiFA-FAP-1) and Example 1 ((S,R,R)—SiFA-FAP-1) was assessed in vitro using Grating-Coupled Interferometry (GCI) and waveRAPID kinetics assay (Kartal Ö et al. SLAS Discov. 2021 September; 26(8)-995-1003).
FAP was immobilized on a streptavidin sensor chap in order to assess target binding of compounds. Briefly, the streptavidin chip was conditioned with borate buffer and activated with EDC-NHS solution. Immobilization was achieved via amine coupling to the surface on an amine reactive sensor chip (NeutrAvidin sensor chip) and unused amine reactive groups were deactivated with ethanolamine. FAP was immobilized via via NeutrAvidin capturing of the biotinylated FAP and remaining NeutrAvidin quenched with biocytin. Binding of the compounds to immobilized FAP was assessed using the waveRAPID kinetics assay, using different concentrations of each compound in 1×PBS pH 7.4, 1 mM DTT, 0.005% Tween, 2% DMSO. Binding affinity to FAP was reported as KD.

[1] = tested on: subcutaneous U87-MG tumour; assay: In vivo PET imaging uptake in U87-MG tumour-bearing mice; settings: 60 minutes post-radiotracer administration; for PET imaging uptake, Muscle: U87-MG tumor-bearing mice; for PET imaging uptake, Muscle / PET imaging uptake, Tumor: i.v.
Method: (§1) The human glioblastoma U87-MG cell line was purchased from ATCC. Cells were cultured in EMEM (supplemented with 2 mM L-glutamine, with 10% fetal bovine serum and 0.1 mM NEAA) at 37° C. in a humidified atmosphere (5% CO2, 95% air).
(§2) All animal experiments were conducted in accordance with the Federation for Laboratory Animal Science Associations guidelines. Healthy female Swiss nude (CrI:NU(Ico)-Foxn1nu) mice (5-6 weeks old) were purchased from Charles River. Mice were irradiated 24-72 hours prior to tumour cell inoculation (whole-body irradiation, 2 Gy/mouse), and U87-MG cells (1×10^7 in 200 μL of RPMI 1640) were then injected subcutaneously into the right shoulder flank.
(§3) Female Swiss nude (CrI:NU(Ico)-Foxn1nu) mice each bearing a subcutaneous U87-MG tumour in the right flank (n=4) were administered with radiolabelled compound of Example 11 ([^18F]—Ga—(S,R,R)—SiFA-FAP-1) (8±1.5 MBq, 100 μL per mouse) intravenously into the tail vein (approximately 3 weeks post inoculation of U87-MG cells). Static PET imaging was performed 60 minutes post-radiotracer administration under anaesthesia (2% isoflurane) using a small animal PET scanner (eXploreVISTA, GE) (n=3). Whole-body PET acquisitions were performed over two bed positions for 20 minutes. Regions of interest were generated, and radiotracer uptake in tissues was calculated as % injected dose per region of interest volume (% ID/cm^3). Immediately post-PET imaging, mice (n=4) were sacrificed and select tissues (blood, tumor, heart, lung, liver, kidneys, spleen, pancreas, intestine, bone, muscle, tail) were harvested and weighed. Radioactivity in the collected samples was determined using γ-counting (Packard). Radiotracer uptake was calculated as % injected dose per gram of tissue (% ID/g).

[2] = tested on: subcutaneous U87-MG tumour; assay: Biodistribution by γ-counting of excised tissues of U87-MG tumour-bearing mice; type: in vivo; settings: γ-counting 80 minutes post-radiotracer injection; for Biodistribution, Blood / Biodistribution, Bone / Biodistribution, Heart / Biodistribution, Intestine / Biodistribution, Kidneys / Biodistribution, Liver / Biodistribution, Lung / Biodistribution, Muscle / Biodistribution, Pancreas / Biodistribution, Spleen: U87-MG tumor-bearing mice
Method: as §1, §2, §3

Compound CC(C)(C)[Si](F)(c1ccc(C(=O)NC[C@@H](NC(=O)CC[C@H](C(=O)O)N2CCN(CC(=O)O)CCN(CC(=O)O)CCN(CC(=O)O)CC2)C(=O)NCCCOc2ccc3nccc(C(=O)NCC(=O)N4CCC[C@H]4C#N)c3c2)cc1)C(C)(C)C [Example 1, 2,2′,2″-(10-((R)-1-Carboxy-4-(((R)-1-((3-((4-((2-((S)-2-cyanopyrrolidin-1-yl)-2-oxoethyl)carbamoyl)quinolin-6-yl)oxy)propyl)amino)-3-(4-(di-tert-butylfluorosilyl)benzamido)-1-oxopropan-2-yl)amino)-4-oxobutyl)-1,4,7,10-tetraazacyclododecane-1,4,7-triyl) triacetic acid] has a Kd (FAP) of 0.031 nM.

For CC(C)(C)[Si]([18F])(c1ccc(C(=O)NC[C@@H](NC(=O)CC[C@H](C(=O)O)N2CCN(CC(=O)O)CCN(CC(=O)O)CCN(CC(=O)O)CC2)C(=O)NCCCOc2ccc3nccc(C(=O)NCC(=O)N4CCC[C@H]4C#N)c3c2)cc1)C(C)(C)C [Example 11], the “PET imaging Tumor:Muscle ratio” value ([1]; Mean ± SD (n=3)) was 4.4 ± 0.8, the “PET imaging Tumor:Muscle ratio” value ([1]; Mouse 1) was 4.6 and the “PET imaging Tumor:Muscle ratio” value ([1]; Mouse 2) was 5. For the same compound, the “PET imaging Tumor:Muscle ratio” value ([1]; Mouse 3) was 3.5, the “PET imaging uptake, Muscle” value ([1]; Mean ± SD (n=3)) was 1.0 ± 0.1 % ID/cm^3 and the “PET imaging uptake, Muscle” value ([1]; Mouse 1) was 1 % ID/cm^3. The “PET imaging uptake, Muscle” value ([1]; Mouse 2) was 0.8 % ID/cm^3, the “PET imaging uptake, Muscle” value ([1]; Mouse 3) was 1.1 % ID/cm^3 and the “PET imaging uptake, Tumor” value ([1]; Mean ± SD (n=3)) was 4.1 ± 0.3 % ID/cm^3. The “PET imaging uptake, Tumor” value ([1]; Mouse 1) was 4.4 % ID/cm^3, the “PET imaging uptake, Tumor” value ([1]; Mouse 2) was 4.2 % ID/cm^3 and the “PET imaging uptake, Tumor” value ([1]; Mouse 3) was 3.8 % ID/cm^3. The “Biodistribution, Blood” value ([2]; Mean ± SD (n=4)) was 2.6 ± 1.1 % ID/g, the “Biodistribution, Bone” value ([2]; Mean ± SD (n=4)) was 5.1 ± 1.3 % ID/g and the “Biodistribution, Heart” value ([2]; Mean ± SD (n=4)) was 1.1 ± 0.2 % ID/g. For the same compound, the “Biodistribution, Intestine” value ([2]; Mean ± SD (n=4)) was 7.3 ± 2.4 % ID/g, the “Biodistribution, Kidneys” value ([2]; Mean ± SD (n=4)) was 3.0 ± 1.2 % ID/g and the “Biodistribution, Liver” value ([2]; Mean ± SD (n=4)) was 3.3 ± 0.8 % ID/g. The “Biodistribution, Lung” value ([2]; Mean ± SD (n=4)) was 1.7 ± 0.1 % ID/g, the “Biodistribution, Muscle” value ([2]; Mean ± SD (n=4)) was 0.6 ± 0.1 % ID/g and the “Biodistribution, Pancreas” value ([2]; Mean ± SD (n=4)) was 0.6 ± 0.1 % ID/g. The “Biodistribution, Spleen” value ([2]; Mean ± SD (n=4)) was 0.7 ± 0.1 % ID/g, the “Biodistribution, Blood” value ([2]; Mouse 1) was 2.0 % ID/g and the “Biodistribution, Bone” value ([2]; Mouse 1) was 5.7 % ID/g. For the same compound, the “Biodistribution, Heart” value ([2]; Mouse 1) was 1.1 % ID/g, the “Biodistribution, Intestine” value ([2]; Mouse 1) was 5.4 % ID/g and the “Biodistribution, Kidneys” value ([2]; Mouse 1) was 3.8 % ID/g. For the same compound, the “Biodistribution, Liver” value ([2]; Mouse 1) was 3.8 % ID/g, the “Biodistribution, Lung” value ([2]; Mouse 1) was 1.6 % ID/g and the “Biodistribution, Muscle” value ([2]; Mouse 1) was 0.5 % ID/g. For the same compound, the “Biodistribution, Pancreas” value ([2]; Mouse 1) was 0.7 % ID/g, the “Biodistribution, Spleen” value ([2]; Mouse 1) was 0.7 % ID/g and the “Biodistribution, Blood” value ([2]; Mouse 2) was 1.3 % ID/g. For the same compound, the “Biodistribution, Bone” value ([2]; Mouse 2) was 6.6 % ID/g, the “Biodistribution, Heart” value ([2]; Mouse 2) was 0.9 % ID/g and the “Biodistribution, Intestine” value ([2]; Mouse 2) was 5.3 % ID/g. For the same compound, the “Biodistribution, Kidneys” value ([2]; Mouse 2) was 1.6 % ID/g, the “Biodistribution, Liver” value ([2]; Mouse 2) was 2.5 % ID/g and the “Biodistribution, Lung” value ([2]; Mouse 2) was 1.8 % ID/g. The “Biodistribution, Muscle” value ([2]; Mouse 2) was 0.8 % ID/g, the “Biodistribution, Pancreas” value ([2]; Mouse 2) was 0.6 % ID/g and the “Biodistribution, Spleen” value ([2]; Mouse 2) was 0.6 % ID/g. For the same compound, the “Biodistribution, Blood” value ([2]; Mouse 3) was 3.5 % ID/g, the “Biodistribution, Bone” value ([2]; Mouse 3) was 4.0 % ID/g and the “Biodistribution, Heart” value ([2]; Mouse 3) was 1.3 % ID/g. For the same compound, the “Biodistribution, Intestine” value ([2]; Mouse 3) was 8.6 % ID/g, the “Biodistribution, Kidneys” value ([2]; Mouse 3) was 4.2 % ID/g and the “Biodistribution, Liver” value ([2]; Mouse 3) was 2.7 % ID/g. The “Biodistribution, Lung” value ([2]; Mouse 3) was 1.7 % ID/g, the “Biodistribution, Muscle” value ([2]; Mouse 3) was 0.5 % ID/g and the “Biodistribution, Pancreas” value ([2]; Mouse 3) was 0.6 % ID/g. For the same compound, the “Biodistribution, Spleen” value ([2]; Mouse 3) was 0.7 % ID/g, the “Biodistribution, Blood” value ([2]; Mouse 4) was 3.5 % ID/g and the “Biodistribution, Bone” value ([2]; Mouse 4) was 4.2 % ID/g. For the same compound, the “Biodistribution, Heart” value ([2]; Mouse 4) was 1.2 % ID/g, the “Biodistribution, Intestine” value ([2]; Mouse 4) was 10.1 % ID/g and the “Biodistribution, Kidneys” value ([2]; Mouse 4) was 2.4 % ID/g. For the same compound, the “Biodistribution, Liver” value ([2]; Mouse 4) was 4.2 % ID/g, the “Biodistribution, Lung” value ([2]; Mouse 4) was 1.8 % ID/g and the “Biodistribution, Muscle” value ([2]; Mouse 4) was 0.6 % ID/g. For the same compound, the “Biodistribution, Pancreas” value ([2]; Mouse 4) was 0.5 % ID/g, the “Biodistribution, Spleen” value ([2]; Mouse 4) was 0.7 % ID/g and the “radiotracer uptake higher in tumor compared to muscle (biodistribution analyses)” value [2] was 8 fold. The “Biodistribution - Tumor to muscle ratio (T:M)” value ([2]; Mean ± SD (n=4)) was 8.3 ± 2.9, the “Biodistribution, Tumor” value ([2]; Mean ± SD (n=4)) was 4.8 ± 1.1 % ID/g and the “Biodistribution - Tumor to muscle ratio (T:M)” value ([2]; Mouse 1) was 11.0. The “Biodistribution, Tumor” value ([2]; Mouse 1) was 5.8 % ID/g, the “Biodistribution - Tumor to muscle ratio (T:M)” value ([2]; Mouse 2) was 5.9 and the “Biodistribution, Tumor” value ([2]; Mouse 2) was 4.8 % ID/g. The “Biodistribution - Tumor to muscle ratio (T:M)” value ([2]; Mouse 3) was 10.6, the “Biodistribution, Tumor” value ([2]; Mouse 3) was 5.2 % ID/g and the “Biodistribution - Tumor to muscle ratio (T:M)” value ([2]; Mouse 4) was 5.7. The “Biodistribution, Tumor” value ([2]; Mouse 4) was 3.2 % ID/g.
